These results are taken from ChEMBL document CHEMBL1139524, “Decoys for docking” (J Med Chem, 2005).

The first assay concerns the target Endolysin (Enterobacteria phage T4, UniProt P00720, L99A). The arrangement: species or system Tequatrovirus T4.
As usually defined, the Kd is the concentration at which binding is half-saturated. In turn, `CCc1ccc(C)cc1` displayed a Kd of 120 µM.
Molecule `CCCc1ccccc1` came in with a Kd of 18 µM.
Molecule `CCc1cccc(C)c1` displayed a Kd of 198 µM.
Same read-out and setting: for `CCc1ccccc1C` the value was 505 µM; for `c1ccc2occc2c1` [BENZOFURAN], 112 µM; for `c1ccc2sccc2c1` [BENZOTHIOPHENE], 74 µM.
`C1=Cc2ccccc2C1` [INDENE]: the affinity, expressed as Kd, was 193 µM.
The molecule `Cc1cccc(C)c1` [M-XYLENE] gave a Kd of 364 µM.

Another assay deals with Endolysin (Enterobacteria phage T4, UniProt P00720, L99A/M102Q). Nature of the assay: Dissociation constant against T4 lysozyme mutant L99A/M102Q. The arrangement: species or system Tequatrovirus T4.
`Nc1ccccc1F` had a Kd of 100 µM.
With `Oc1cccc(Cl)c1`, the Kd is 56 µM.
Still for that read-out and setting: for `Cc1cc[nH]c1` the value was 159 µM.

The target in the next assay is T1, Beta-lactamase (Escherichia coli K-12, UniProt P00811). Nature of the assay: Inhibitory constant against beta-lactamase AmpC from Escherichia coli.
T1 sequence (P00811 whole entry): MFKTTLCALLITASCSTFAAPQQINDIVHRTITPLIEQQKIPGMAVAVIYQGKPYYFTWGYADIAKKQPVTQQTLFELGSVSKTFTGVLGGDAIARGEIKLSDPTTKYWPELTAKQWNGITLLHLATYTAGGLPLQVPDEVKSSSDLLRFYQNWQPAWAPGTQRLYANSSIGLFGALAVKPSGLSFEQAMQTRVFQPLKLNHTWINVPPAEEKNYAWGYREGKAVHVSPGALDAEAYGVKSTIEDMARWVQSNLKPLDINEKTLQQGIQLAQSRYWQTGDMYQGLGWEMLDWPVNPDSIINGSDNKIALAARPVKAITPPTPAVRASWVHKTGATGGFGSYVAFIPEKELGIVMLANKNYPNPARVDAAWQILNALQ
Regarding `O=C(O)c1sccc1S(=O)(=O)Nc1ccc(Cl)cc1`, the Ki worked out at 26 µM.

The target of a further assay is T1, Beta-lactamase. Nature of the assay: Apparent inhibitory constant against beta-lactamase AmpC from Escherichia coli.
Regarding `NS(=O)(=O)c1ccc(NS(=O)(=O)c2ccsc2C(=O)O)cc1`, the Ki was determined as 93 µM.
